Laboratory results: ChEMBL document CHEMBL3779792, “Anti-proliferative evaluation of monoterpene derivatives against leukemia” (Eur J Med Chem, 2016)

Legend:
HEK293 = assay: Cytotoxicity against HEK293 cells after 72 hrs by Cell-Titer Glo assay; type: cell-based; settings: Homo sapiens, HEK293, 72 h
[1] = Cytotoxicity against human SEM cells after 72 hrs by Cell-Titer Glo assay; type: functional, cell-based
[2] = Cytotoxicity against human NALM6 cells after 72 hrs by Cell-Titer Glo assay; type: functional, cell-based; settings: NALM-6, 72 h
Raji = assay: Cytotoxicity against human Raji cells after 72 hrs by Cell-Titer Glo assay; type: functional, cell-based
Jurkat = assay: Cytotoxicity against human Jurkat cells after 72 hrs by Cell-Titer Glo assay; type: functional, cell-based
HepG2 = assay: Cytotoxicity against human HepG2 cells after 72 hrs by Cell-Titer Glo assay; type: functional, cell-based; settings: HepG2, 72 h
BJ = assay: Cytotoxicity against human BJ cells after 72 hrs by Cell-Titer Glo assay; type: cell-based

Row | Structure (SMILES) | EC50 (HEK293) [µM] | EC50 [1] [µM] | EC50 [2] [µM] | EC50 (Raji) [µM] | EC50 (Jurkat) [µM] | EC50 (HepG2) [µM] | EC50 (BJ) [µM]
1 | C=C[C@@](C)(/C=C/c1ccc(OS(=O)(=O)C(F)(F)F)cc1)CCC=C(C)C | > 36.6 | > 36.6 | > 43.5 | > 26 | > 49 | > 52.1 | > 36.6
2 | C=C[C@@](C)(/C=C/c1ccc(O)cc1)CC/C=C/C#N | > 36.6 | > 36.6 | > 43.5 | > 26 | > 49 | > 52.1 | > 36.6
3 | C=C[C@@](C)(/C=C/c1ccc(O)cc1)CC/C=C/C(=O)c1ccccc1 | > 36.6 | > 36.6 | > 43.5 | > 26 | > 49 | > 52.1 | > 36.6
4 | C=C[C@@](C)(/C=C/c1ccc(O)c(/C=C/C(=O)O)c1)CCC=C(C)C | > 36.6 | > 36.6 | > 43.5 | > 26 | > 49 | > 52.1 | > 36.6
5 | C=C[C@@](C)(/C=C/c1ccc(O)c(/C=C/C(=O)OCC)c1)CCC=C(C)C | > 36.6 | > 36.6 | 20.9 | > 26 | > 49 | > 52.1 | > 36.6
6 | C=C[C@@](C)(/C=C/c1ccc(O)cc1)CC/C=C(C)/C=N/N | > 36.6 | > 36.6 | > 43.5 | > 26 | > 49 | > 52.1 | > 36.6
7 | COc1ccc(/C=C/[C@@](C)(/C=C/c2ccc(O)c(C=O)c2)CCC=C(C)C)cc1 | 2.27 | 4.55 | > 43.5 | 13 | > 49 | > 26 | 9.8
8 | CCOc1ccc(/C=C/[C@@](C)(/C=C/c2ccc(O)cc2)CCC=C(C)C)cc1 | > 36.6 | > 36.6 | > 43.5 | > 26 | > 49 | > 52.1 | > 36.6
9 | C=C[C@@](C)(/C=C/c1ccc(O)c(/C=C/C=C/c2ccccc2)c1)CCC=C(C)C | > 36.6 | > 15 | > 43.5 | > 26 | > 49 | > 52.1 | > 36.6
10 | COc1ccc(/C=C/[C@@](C)(/C=C/c2ccc(O)c(/C=C/C(=O)OCc3ccccc3)c2)CCC=C(C)C)cc1 | > 36.6 | > 36.6 | > 43.5 | > 26 | > 49 | > 26 | > 36.6
11 | CCOC(=O)/C=C/c1cc(/C=C/[C@](C)(/C=C/c2ccc(OC)cc2)CCC=C(C)C)ccc1O | > 36.6 | > 36.6 | > 43.5 | > 26 | > 49 | > 52.1 | > 36.6
12 | CCOC(=O)/C(C)=C/c1cc(/C=C/[C@](C)(/C=C/c2ccc(OC)cc2)CCC=C(C)C)ccc1O | > 36.6 | > 36.6 | > 43.5 | > 26 | > 49 | > 52.1 | > 36.6
13 | C=C[C@@](C)(/C=C/c1ccc(OS(=O)(=O)c2ccc(C)cc2)cc1)CCC=C(C)C | > 36.6 | > 43.5 | > 43.5 | > 26 | > 49 | > 52.1 | > 36.6
14 | C=C[C@@](C)(/C=C/c1ccc(O)cc1)CC/C=C(\C)CO | > 36.6 | > 36.6 | > 43.5 | > 26 | > 49 | > 52.1 | > 36.6
15 | C=C[C@@](C)(/C=C/c1ccc(O)cc1)CCC=C(C)C [BAKUCHIOL] | > 36.6 | 15.3 | 38 | > 26 | > 49 | > 52.1 | > 36.6
16 | C=C[C@@](C)(/C=C/c1ccc(O)cc1)CC/C=C/C(=O)OCC | > 36.6 | > 36.6 | > 43.5 | > 26 | > 49 | > 52.1 | > 36.6
